Experimental findings from PubChem BioAssay (NCI) are described below.

The structures appear in SMILES notation.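 Cultured in 96-well plates, cells were exposed to test compound for 48 hours across five concentrations. TGI: total growth inhibition.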

Some test systems named below: ACHN renal; EKVX NSCLC; SW-620 colon; RXF 393 renal; CAKI-1 renal; UACC-62 melanoma; BT-549 breast; SK-MEL-5 melanoma; DU-145 prostate; SNB-19 CNS.
Common to all, as to assay: NCI tumour cell line growth inhibition, 48 h

Take `CC1CC[C@@]2(OC1)OC1C[C@H]3[C@@H]4CC=C5CC(OC6OC(CO)C(OC7OC(CO)C(O)C(OC8OCC(O)C(O)C8O)C7OC7OC(CO)C(OC8OC(C)C(OC9OC(C)C(O)C(O)C9O)C(O)C8O)C(O)C7O)C(O)C6O)CCC5(C)[C@H]4CCC3(C)C1[C@@H]2C` (stereo not given in full): the TGI in the assay with ACHN renal came to 9.92 µM; in the assay with EKVX NSCLC, 15.3 µM; in the assay on SW-620 colon, 22.9 µM; in the assay on RXF 393 renal it was 14.2 µM; with CAKI-1 renal, 15.3 µM; with UACC-62 melanoma it was 17.7 µM. The TGI was found to be 16.4 µM in the assay with BT-549 breast, 15.8 µM with SK-MEL-5 melanoma, 15.9 µM in the assay on DU-145 prostate and 11.6 µM in the assay with SNB-19 CNS.

As to `CCO/C(=N/S(=O)(=O)C(F)(F)F)N(C(C)C)C(C)C`, the TGI with ACHN renal, in the assay on EKVX NSCLC, with SW-620 colon, with RXF 393 renal, in the assay with CAKI-1 renal and in the assay on UACC-62 melanoma was over 100 µM each time. In addition, the TGI in the assay on BT-549 breast, with SK-MEL-5 melanoma, in the assay with DU-145 prostate and with SNB-19 CNS was over 100 µM in each case.

With `N#Cc1c(-c2ccc(Cl)cc2)c2c(nn3c4ccc5ccccc5c4nnc23)[nH]c1=O`, the TGI in the assay on ACHN renal is 8.76 µM; in the assay with EKVX NSCLC, 27.1 µM; in the assay with SW-620 colon it was 11.4 µM; in the assay with RXF 393 renal, 3.72 µM; in the assay with CAKI-1 renal, 8.5 µM; in the assay with UACC-62 melanoma, 3.24 µM. Further, the TGI in the assay with BT-549 breast amounted to 2.92 µM; with SK-MEL-5 melanoma, 6.27 µM; in the assay with DU-145 prostate it was 4.61 µM; in the assay with SNB-19 CNS, 24.2 µM.

As to `C[C@@H]1OC(=O)C[C@H]2CC(=O)N(CCC3CN(C(=O)OCc4ccccc4)c4ccccc43)C[C@@H]21` (stereo not given in full), the TGI with ACHN renal, in the assay on EKVX NSCLC, in the assay with SW-620 colon, with RXF 393 renal, with CAKI-1 renal and in the assay on UACC-62 melanoma was over 100 µM in each case. Besides, the TGI with BT-549 breast, in the assay with SK-MEL-5 melanoma, in the assay on DU-145 prostate and with SNB-19 CNS was over 100 µM in each case.

In the case of `CCN(CCCOc1ccccc1)CCN(CC)CCCOc1ccccc1`, the TGI is 31.5 µM with ACHN renal; 28.9 µM in the assay on EKVX NSCLC; 70.5 µM with SW-620 colon; 38.5 µM with RXF 393 renal; 34 µM in the assay on CAKI-1 renal; 36.7 µM with UACC-62 melanoma. In addition, the TGI was found to be 29.1 µM with BT-549 breast, 5.44 µM in the assay with SK-MEL-5 melanoma, 23.9 µM in the assay on DU-145 prostate and 23.4 µM with SNB-19 CNS.

For the molecule `OC1[C@@H]2[C@@H](O)CCCN2C[C@@H](O)[C@H]1O` (stereo not given in full), the TGI in the assay on ACHN renal, in the assay with EKVX NSCLC, in the assay on SW-620 colon, in the assay on RXF 393 renal, in the assay on CAKI-1 renal and in the assay with UACC-62 melanoma was over 100 µM throughout. The TGI in the assay with BT-549 breast, in the assay with SK-MEL-5 melanoma, in the assay on DU-145 prostate and with SNB-19 CNS was over 100 µM throughout.

Take `Cc1ccc(Nc2nc3[nH]ccc3c(=O)[nH]2)cc1`: the TGI in the assay on ACHN renal, in the assay with EKVX NSCLC, in the assay with SW-620 colon, with RXF 393 renal, in the assay on CAKI-1 renal and in the assay on UACC-62 melanoma was over 100 µM throughout. Besides, the TGI in the assay with BT-549 breast, with SK-MEL-5 melanoma, with DU-145 prostate and with SNB-19 CNS was over 100 µM each time.

Regarding `CCOC(=O)c1c(C)n(Cc2ccc(Cl)cc2Cl)c2c1cc(O)c1[nH]c3c(c12)CCCC3`, the TGI with ACHN renal was 61.2 µM; in the assay on EKVX NSCLC, over 100 µM; in the assay on SW-620 colon it was over 100 µM; with RXF 393 renal, 41.2 µM; in the assay with CAKI-1 renal it was 56.4 µM; with UACC-62 melanoma, 49.2 µM. Also, the TGI with BT-549 breast was 41.3 µM; in the assay with SK-MEL-5 melanoma, 44.5 µM; in the assay with DU-145 prostate, over 100 µM; with SNB-19 CNS it was 58 µM.

Take `O=c1[nH]cc(NCCCl)c(=O)[nH]1`: the TGI with ACHN renal, with EKVX NSCLC, in the assay on SW-620 colon, with RXF 393 renal, in the assay on CAKI-1 renal and in the assay on UACC-62 melanoma was over 100 µM in each case. For the same molecule, the TGI with BT-549 breast, with SK-MEL-5 melanoma, with DU-145 prostate and in the assay with SNB-19 CNS was over 100 µM each time.

On to `O=C1c2cccc([N+](=O)[O-])c2C(=O)N1Cc1ccccc1`, for which the TGI with ACHN renal, with EKVX NSCLC, with SW-620 colon, in the assay with RXF 393 renal, with CAKI-1 renal and with UACC-62 melanoma was over 100 µM each time. Also, the TGI in the assay with BT-549 breast, in the assay with SK-MEL-5 melanoma, in the assay with DU-145 prostate and with SNB-19 CNS was over 100 µM in each case.

With `CCOC(=O)c1ccc(-n2[nH]nc(C(N)=O)c2=O)cc1`, the TGI with ACHN renal, in the assay on EKVX NSCLC, in the assay with SW-620 colon, with RXF 393 renal, in the assay with CAKI-1 renal and in the assay with UACC-62 melanoma was over 100 µM each time. Also, the TGI in the assay with BT-549 breast, in the assay on SK-MEL-5 melanoma, with DU-145 prostate and with SNB-19 CNS was over 100 µM each time.

On to `CN(C)CC(O)c1ccc(Cl)c2ccccc12` (stereo not given), for which the TGI is over 100 µM in the assay with ACHN renal; over 100 µM in the assay with EKVX NSCLC; over 100 µM in the assay with SW-620 colon; over 64.9 µM in the assay with RXF 393 renal; over 96.6 µM with CAKI-1 renal; 34 µM in the assay with UACC-62 melanoma. Besides, the TGI in the assay with BT-549 breast was over 100 µM; with SK-MEL-5 melanoma, 31.4 µM; with DU-145 prostate it was over 100 µM; in the assay on SNB-19 CNS it was over 100 µM.

As for `CC(C)(C)c1ccc(OCCOc2ccc(C(C)(C)C)cc2N)c(N)c1`, the TGI in the assay with ACHN renal, in the assay with EKVX NSCLC, with SW-620 colon, in the assay on RXF 393 renal, with CAKI-1 renal and in the assay on UACC-62 melanoma was over 100 µM each time. Besides, the TGI in the assay with BT-549 breast, with SK-MEL-5 melanoma, in the assay on DU-145 prostate and in the assay on SNB-19 CNS was over 100 µM in each case.
